What follows are compounds tested on β-catenin-TCF-mediated reporter transcription activity in Colo 205 cells (assay: Colo 205 reporter assay (TCF/LEF luciferase)). Details: Homo sapiens, COLO 205, 5 h, Colo 205 TCF/LEF luciferase reporter, five hours after addition of compound; read-out: TCF reporter Colo205 IC50.
Format: cell-based
In short: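 Luciferase signal from a TCF/LEF-driven reporter, stably integrated in Colo 205 colon cancer cells, was measured 5 h after compound addition.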
Compound COc1c(F)cc(Cn2cnc(CNc3nc(C)c4c(n3)N(C)[C@@H](C(C)C)C(=O)N4)n2)cc1F [Compound 488, (S)-2-(((1-(3,5-difluoro-4-methoxybenzyl)-1H-1,2,4-triazol-3-yl)methyl)amino)-7-isopropyl-4,8-dimethyl-7,8-dihydropteridin-6(5H)-one] has an IC50 of 1000 to 5000 nM. For Cc1nc(NCc2ncn(Cc3ccc(OC(F)(F)F)cc3)n2)nc2c1NC(=O)[C@H](C(C)C)N2C [Compound 489, (S)-7-isopropyl-4,8-dimethyl-2-(((1-(4-(trifluoromethoxy)benzyl)-1H-1,2,4-triazol-3-yl)methyl)amino)-7,8-dihydropteridin-6(5H)-one], the IC50 was ≥ 5000 nM. In the case of Cc1nc(NCc2ncn(Cc3cc(F)c(F)c(F)c3)n2)nc2c1NC(=O)[C@H](C(C)C)N2C [Compound 490, (S)-7-isopropyl-4,8-dimethyl-2-(((1-(3,4,5-trifluorobenzyl)-1H-1,2,4-triazol-3-yl)methyl)amino)-7,8-dihydropteridin-6(5H)-one], the IC50 is reported as ≥ 5000 nM. Compound Cc1nc(NCc2cnn(CCCc3ccc(C(F)(F)F)nc3)c2)nc2c1NC(=O)[C@H](C)N2C [Compound 492, (S)-4,7,8-trimethyl-2-(((1-(3-(6-(trifluoromethyl)pyridin-3-yl)propyl)-1H-pyrazol-4-yl)methyl)amino)-7,8-dihydropteridin-6(5H)-one] has an IC50 of 300 to 1000 nM. For [2H]C([2H])(O)c1nc(NCc2cnn(Cc3ccc(C(F)(F)F)nc3)c2)nc2c1NC(=O)[C@H](C)N2C [Compound 493, (7S)-4-(hydroxymethyl-d2)-7,8-dimethyl-2-(((1-((6-(trifluoromethyl)pyridin-3-yl)methyl)-1H-pyrazol-4-yl)methyl)amino)-7,8-dihydropteridin-6(5H)-one], the IC50 was 1000 to 5000 nM. For [2H]C([2H])([2H])c1nc(NCc2cnn(Cc3ccc(C(F)(F)F)nc3)c2)nc2c1NC(=O)[C@H](C)N2C [Compound 494, (7S)-7,8-dimethyl-4-(methyl-d3)-2-(((1-((6-(trifluoromethyl)pyridin-3-yl)methyl)-1H-pyrazol-4-yl)methyl)amino)-7,8-dihydropteridin-6(5H)-one], the IC50 was < 300 nM. In the case of Cc1nc(NCc2cnn(Cc3ccc(C(F)(F)F)nc3)c2)nc2c1NC(=O)[C@H](CC(F)(F)F)N2C [Compound 495, (S)-4,8-dimethyl-7-(2,2,2-trifluoroethyl)-2-(((1-((6-(trifluoromethyl)pyridin-3-yl)methyl)-1H-pyrazol-4-yl)methyl)amino)-7,8-dihydropteridin-6(5H)-one], the IC50 is reported as < 300 nM. CC[C@H]1C(=O)Nc2cnc(NCc3cnn(Cc4ccc(C(F)(F)F)nc4)c3)nc2N1C(C)C [Compound 497, (7S)-7-ethyl-8-isopropyl-2-(((1-((6-(trifluoromethyl)pyridin-3-yl)methyl)-1H-pyrazol-4-yl)methyl)amino)-7,8-dihydropteridin-6(5H)-one] was tested, and the IC50 was 300 to 1000 nM. With CO[C@H](C)[C@H]1C(=O)Nc2c(C)nc(NCc3cnn(Cc4ccc(C(F)(F)F)nc4)c3)nc2N1C [Compound 498, (S)-7-((R)-1-methoxyethyl)-4,8-dimethyl-2-(((1-((6-(trifluoromethyl)pyridin-3-yl)methyl)-1H-pyrazol-4-yl)methyl)amino)-7,8-dihydropteridin-6(5H)-one] the IC50 was < 300 nM. Cc1nc(N[C@H]2CC[C@@H](N(C)c3ccc(C(F)(F)F)cc3)C2)nc2c1NC(=O)[C@H](C(C)C)N2C [Compound 502, (S)-7-isopropyl-4,8-dimethyl-2-(((1S,3R)-3-(methyl(4-(trifluoromethyl)phenyl)amino)cyclopentyl)amino)-7,8-dihydropteridin-6(5H)-one] was tested, and the IC50 was 1000 to 5000 nM. Cc1nc(N[C@H]2CC[C@H](N(C)c3ccc(C(F)(F)F)cc3)C2)nc2c1NC(=O)[C@H](C(C)C)N2C [Compound 503, (S)-7-isopropyl-4,8-dimethyl-2-(((1S,3S)-3-(methyl(4-(trifluoromethyl)phenyl)amino)cyclopentyl)amino)-7,8-dihydropteridin-6(5H)-one] was tested, and the IC50 was 1000 to 5000 nM. With Cc1nc(N[C@@H]2CC[C@@H](N(C)c3ccc(C(F)(F)F)cc3)C2)nc2c1NC(=O)[C@H](C(C)C)N2C [Compound 504, (S)-7-isopropyl-4,8-dimethyl-2-(((1R,3R)-3-(methyl(4-(trifluoromethyl)phenyl)amino)cyclopentyl)amino)-7,8-dihydropteridin-6(5H)-one] the IC50 was 300 to 1000 nM. Work on Cc1nc(N[C@@H]2CC[C@H](N(C)c3ccc(C(F)(F)F)cc3)C2)nc2c1NC(=O)[C@H](C(C)C)N2C [Compound 505, (S)-7-isopropyl-4,8-dimethyl-2-(((1R,3S)-3-(methyl(4-(trifluoromethyl)phenyl)amino)cyclopentyl)amino)-7,8-dihydropteridin-6(5H)-one] yielded an IC50 of 1000 to 5000 nM. For Cc1nc(N[C@H]2C[C@H](c3ccc(OC(F)(F)F)cc3)C2)nc2c1NC(=O)[C@H](C)N2C [Compound 506, (7S)-4,7,8-trimethyl-2-(((trans)-3-(4-(trifluoromethoxy)phenyl)cyclo-butyl)amino)-7,8-dihydropteridin-6(5H)-one], the IC50 was 300 to 1000 nM. In the case of Cc1nc(N[C@H]2C[C@@H](c3ccc(OC(F)(F)F)cc3)C2)nc2c1NC(=O)[C@H](C)N2C [Compound 507, (7S)-4,7,8-trimethyl-2-(((cis)-3-(4-(trifluoromethoxy)phenyl)cyclo-butyl)amino)-7,8-dihydropteridin-6(5H)-one], the IC50 is reported as < 300 nM. Cc1nc(NCc2cc(C)n(Cc3ccc(F)cc3)c2C)nc2c1NC(=O)[C@H](C(C)C)N2C [Compound 508, (S)-2-(((1-(4-fluorobenzyl)-2,5-dimethyl-1H-pyrrol-3-yl)methyl)amino)-7-isopropyl-4,8-dimethyl-7,8-dihydropteridin-6(5H)-one] gave an IC50 of 300 to 1000 nM. With Cc1nc(NCc2cnn(Cc3ccc(OC(F)(F)F)nc3)c2)nc2c1NC(=O)[C@H](C(C)C)N2C [Compound 510, (S)-7-isopropyl-4,8-dimethyl-2-(((1-((6-(trifluoromethoxy)pyridin-3-yl)methyl)-1H-pyrazol-4-yl)methyl)amino)-7,8-dihydropteridin-6(5H)-one] the IC50 was < 300 nM. In the case of Cc1nc(N[C@H]2C[C@@H](Cn3nccc3C(F)(F)F)C2)nc2c1NC(=O)[C@H](C(C)C)N2C [Compound 512, (S)-7-isopropyl-4,8-dimethyl-2-((cis-3-((5-(trifluoromethyl)-1H-pyrazol-1-yl)methyl)cyclobutyl)amino)-7,8-dihydropteridin-6(5H)-one], the IC50 is reported as < 300 nM. In the case of Cc1nc(N[C@H]2C[C@@H](NC(=O)Cc3cc(F)c(F)c(F)c3)C2)nc2c1NC(=O)[C@H](C(C)C)N2C [Compound 514, N-(cis-3-(((S)-7-isopropyl-4,8-dimethyl-6-oxo-5,6,7,8-tetrahydropteridin-2-yl)amino)cyclobutyl)-2-(3,4,5-trifluorophenyl)acetamide], the IC50 is reported as < 300 nM. For Cc1nc(N[C@H]2C[C@H](NC(=O)Cc3cc(F)c(F)c(F)c3)C2)nc2c1NC(=O)[C@H](C(C)C)N2C [Compound 515, N-(trans-3-(((S)-7-isopropyl-4,8-dimethyl-6-oxo-5,6,7,8-tetrahydropteridin-2-yl)amino)cyclobutyl)-2-(3,4,5-trifluorophenyl)acetamide], the IC50 was < 300 nM. For CC[C@H]1C(=O)Nc2c(C)nc(NCc3cnn(Cc4ccc(C(F)(F)F)o4)c3)nc2N1C [Compound 516, (S)-7-ethyl-4,8-dimethyl-2-(((1-((5-(trifluoromethyl)furan-2-yl)methyl)-1H-pyrazol-4-yl)methyl)amino)-7,8-dihydropteridin-6(5H)-one], the IC50 was < 300 nM. Compound Cc1nc(N[C@H]2CCc3c2cnn3Cc2ccc(C(F)(F)F)nc2)nc2c1NC(=O)[C@H](C(C)C)N2C [Compound 519, (S)-7-isopropyl-4,8-dimethyl-2-(((S)-1-((6-(trifluoromethyl)pyridin-3-yl)methyl)-1,4,5,6-tetrahydrocyclopenta[c]pyrazol-4-yl)amino)-7,8-dihydropteridin-6(5H)-one] has an IC50 of 1000 to 5000 nM. For Cc1nc(N[C@@H]2CCc3c2cnn3Cc2ccc(C(F)(F)F)nc2)nc2c1NC(=O)[C@H](C(C)C)N2C [Compound 520, (S)-7-isopropyl-4,8-dimethyl-2-(((R)-1-((6-(trifluoromethyl)pyridin-3-yl)methyl)-1,4,5,6-tetrahydrocyclopenta[c]pyrazol-4-yl)amino)-7,8-dihydropteridin-6(5H)-one], the IC50 was ≥ 5000 nM. For Cc1nc(N[C@H]2CCc3nn(Cc4ccc(C(F)(F)F)nc4)cc32)nc2c1NC(=O)[C@H](C(C)C)N2C [Compound 521, (S)-7-isopropyl-4,8-dimethyl-2-(((S)-2-((6-(trifluoromethyl)pyridin-3-yl)methyl)-2,4,5,6-tetrahydrocyclopenta[c]pyrazol-4-yl)amino)-7,8-dihydropteridin-6(5H)-one], the IC50 was 1000 to 5000 nM. With Cc1nc(N[C@H]2C[C@H](NC(=O)N3CCC(F)(F)CC3)C2)nc2c1NC(=O)[C@H](C(C)C)N2C [Compound 523, 4,4-difluoro-N-(trans-3-(((S)-7-isopropyl-4,8-dimethyl-6-oxo-5,6,7,8-tetrahydropteridin-2-yl)amino)cyclobutyl)piperidine-1-carboxamide] the IC50 was ≥ 5000 nM. With Cc1nc(N[C@H]2C[C@H](NC(=O)NC3CCC(F)(F)CC3)C2)nc2c1NC(=O)[C@H](C(C)C)N2C [Compound 524, 1-(4,4-difluorocyclohexyl)-3-(trans-3-(((S)-7-isopropyl-4,8-dimethyl-6-oxo-5,6,7,8-tetrahydropteridin-2-yl)amino)cyclobutyl)urea] the IC50 was ≥ 5000 nM. In the case of Cc1nc(N[C@H]2C[C@@H](NC(=O)N3CCC(F)(F)CC3)C2)nc2c1NC(=O)[C@H](C(C)C)N2C [Compound 525, 4,4-difluoro-N-(cis-3-(((S)-7-isopropyl-4,8-dimethyl-6-oxo-5,6,7,8-tetrahydropteridin-2-yl)amino)cyclobutyl)piperidine-1-carboxamide], the IC50 is reported as ≥ 5000 nM. For Cc1nc(N[C@H]2C[C@@H](NC(=O)NC3CCC(F)(F)CC3)C2)nc2c1NC(=O)[C@H](C(C)C)N2C [Compound 526, 1-(4,4-difluorocyclohexyl)-3-(cis-3-(((S)-7-isopropyl-4,8-dimethyl-6-oxo-5,6,7,8-tetrahydropteridin-2-yl)amino)cyclobutyl)urea], the IC50 was ≥ 5000 nM.
